Broadly, the CC50 is the concentration that lowers cell viability or growth by half. For orientation: IC50 means the midpoint of a concentration-inhibition curve.

Structures are written as SMILES.

The results in this text go back to ChEMBL document CHEMBL3871261, “Novel pyrazolo[3,4-d]pyrimidines as dual Src-Abl inhibitors active against mutant form of Abl and the leukemia K-562 cell line” (Eur J Med Chem, 2016).

The species named for experiment [1] is Homo sapiens. The experiment in a line: Inhibition of recombinant PI3K (unknown origin) assessed as residual activity at 100 uM by [gamma-32P]ATP based assay.
Experiment [2] is described as follows: Cytotoxicity against human K562 cells assessed as decrease in cell viability by MTT assay. Type of experiment: functional. Background: Tetrazolium assays rely on reduction of a dye to a coloured formazan, in cell work by metabolically active cells.
The target in experiment [3] is Tyrosine-protein kinase ABL1 (Homo sapiens, UniProt P00519). The experiment in a line: Inhibition of wild type recombinant human Abl using abtide as substrate by [gamma-32P]ATP based assay.
Tyrosine-protein kinase ABL1, sequence (P00519 whole entry): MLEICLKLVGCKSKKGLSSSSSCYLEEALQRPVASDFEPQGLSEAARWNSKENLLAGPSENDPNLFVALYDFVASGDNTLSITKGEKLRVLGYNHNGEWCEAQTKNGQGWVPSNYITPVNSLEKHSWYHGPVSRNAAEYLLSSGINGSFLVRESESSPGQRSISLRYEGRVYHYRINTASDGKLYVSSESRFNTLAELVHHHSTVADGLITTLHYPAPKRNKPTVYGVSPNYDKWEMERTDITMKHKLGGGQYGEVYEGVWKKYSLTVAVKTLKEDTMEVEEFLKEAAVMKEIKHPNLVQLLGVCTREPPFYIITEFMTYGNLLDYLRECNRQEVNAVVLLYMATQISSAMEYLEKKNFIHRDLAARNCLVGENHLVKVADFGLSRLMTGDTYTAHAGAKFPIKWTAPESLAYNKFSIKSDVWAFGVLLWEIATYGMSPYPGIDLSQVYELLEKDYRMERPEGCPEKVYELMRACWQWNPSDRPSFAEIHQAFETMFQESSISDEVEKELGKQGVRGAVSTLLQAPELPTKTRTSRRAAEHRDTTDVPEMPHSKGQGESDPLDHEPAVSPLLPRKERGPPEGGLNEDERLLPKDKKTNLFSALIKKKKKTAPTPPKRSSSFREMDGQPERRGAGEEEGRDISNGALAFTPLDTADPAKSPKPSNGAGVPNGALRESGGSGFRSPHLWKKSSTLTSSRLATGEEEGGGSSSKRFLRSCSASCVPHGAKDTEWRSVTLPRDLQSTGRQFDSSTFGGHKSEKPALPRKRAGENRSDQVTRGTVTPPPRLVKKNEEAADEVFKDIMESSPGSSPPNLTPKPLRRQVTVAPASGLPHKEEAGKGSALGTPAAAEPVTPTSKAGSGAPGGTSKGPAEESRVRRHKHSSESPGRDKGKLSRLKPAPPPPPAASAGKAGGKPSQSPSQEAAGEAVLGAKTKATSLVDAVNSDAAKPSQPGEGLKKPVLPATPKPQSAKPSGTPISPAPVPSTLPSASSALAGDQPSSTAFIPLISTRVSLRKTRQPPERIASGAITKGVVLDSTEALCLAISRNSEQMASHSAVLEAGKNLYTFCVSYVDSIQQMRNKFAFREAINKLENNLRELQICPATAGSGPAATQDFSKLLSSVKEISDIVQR

Regarding `COc1ccc(C(=O)NNc2nc3c(cnn3-c3ccccc3)c(=O)n2-c2ccccc2)cc1`, in experiment [1], the Activity came to 80%. The 50% cytotoxic concentration (CC50) in experiment [2] came out at 0.05 µM.

As to `COc1ccc(-c2nnc3n(-c4ccccc4)c(=O)c4cnn(-c5ccccc5)c4n23)cc1`, the Activity in experiment [1] was 90%. Besides, in experiment [2], the CC50 came to 1.06 µM.

Regarding `NNc1nc2c(cnn2-c2ccccc2)c(=O)n1-c1ccccc1`, the CC50 in experiment [2] is 2.37 µM.

With `O=C(NNc1nc2c(cnn2-c2ccccc2)c(=O)n1-c1ccccc1)c1ccccc1`, the Activity in experiment [1] was found to be 100%. In experiment [2], the CC50 worked out at 0.07 µM.

Regarding `O=c1c2cnn(-c3ccccc3)c2nc(N/N=C/c2ccc(F)cc2)n1-c1ccccc1`, the IC50 in experiment [3] is 110 µM. Further, the CC50 in experiment [2] amounted to 4.06 µM.

For `O=C(NNc1nc2c(cnn2-c2ccccc2)c(=O)n1-c1ccccc1)c1ccc(Cl)cc1`, in experiment [2], the CC50 came out at 0.86 µM.

In the case of `O=c1c2cnn(-c3ccccc3)c2n2c(Nc3ccccc3)nnc2n1-c1ccccc1`, the IC50 in experiment [3] stood at 150 µM. The CC50 in experiment [2] is 4.92 µM.

As for `Cc1nc(Nc2ncc(C(=O)Nc3c(C)cccc3Cl)s2)cc(N2CCN(CCO)CC2)n1` [DASATINIB], the CC50 in experiment [2] was determined as 0.25 µM.

For the compound `O=c1c2cnn(-c3ccccc3)c2n2c(-c3ccccc3)nnc2n1-c1ccccc1`, the Activity in experiment [1] stood at 82%. In addition, in experiment [2], the CC50 turned out to be 0.92 µM.
